Consider 18 compounds from patent US8609836B2, “4-aryl-2-anilino-pyrimidines” (Janssen Pharmaceutica NV, priority 2008, dated 2013).

Structures are written as SMILES. pIC50: −log10 of the molar value.

One test deals with AuroraB (h) (Homo sapiens, UniProt Q96GD4). In words: Aurora-B human kinase inhibition, SPA. The test is classed as biochemical. Conditions: read-out: AuroraB pIC50 (converted). The method, boiled down: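 SPA with biotinylated peptide (3 μM) in 60 mM Hepes pH 7.5, Mg/Mn 3 mM each, 0.5 μM ATP plus [γ-33P]ATP, AuroraB at 0.5 μg/ml. The reaction runs 60 min at room temperature and is stopped with EDTA and streptavidin PVT beads. 33P-substrate is read by scintillation imaging.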
Sequence of AuroraB (h) (Q96GD4 whole entry): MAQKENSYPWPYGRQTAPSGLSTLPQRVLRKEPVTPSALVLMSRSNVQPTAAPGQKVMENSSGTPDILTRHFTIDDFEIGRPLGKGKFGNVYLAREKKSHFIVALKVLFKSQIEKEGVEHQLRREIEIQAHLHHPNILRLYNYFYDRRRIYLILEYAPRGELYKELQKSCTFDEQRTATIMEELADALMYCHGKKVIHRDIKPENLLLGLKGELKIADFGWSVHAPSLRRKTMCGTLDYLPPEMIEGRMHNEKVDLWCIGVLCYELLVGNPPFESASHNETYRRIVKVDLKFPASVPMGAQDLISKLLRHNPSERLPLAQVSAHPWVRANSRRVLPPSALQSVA

Another test has as its target GSK3β (h) (Homo sapiens, UniProt P49841). In words: GSK-3β human kinase inhibition, SPA. To be noted: read-out: GSK3b pIC50 (converted). In kind it is biochemical. The method, boiled down:
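Scintillation proximity assay: GSK3β (1 μg/ml) with 1 μM biotinylated peptide, 1 μM ATP plus [γ-33P]ATP in Tris pH 7.4, MgCl2, DTT. 60 min at room temperature, stopped with EDTA and streptavidin PVT beads; phosphorylation read by Leadseeker imaging.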

The target of a further test is CDK1/CyclinB (h) (Homo sapiens, UniProt P06493). Description: CDK1/CyclinB human kinase inhibition, Invitrogen's FRET assay (Z'lyte). The test is classed as biochemical. To be noted: read-out: CDK1 pIC50 (converted). The method in brief:
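Z'lyte FRET assay: human CDK1/CyclinB (0.2 μg/ml) with 2 μM Ser/Thr peptide 12 and 10 μM ATP in 50 mM Hepes pH 7.5, MgCl2, EGTA, Brij-35, 60 min at room temperature. Protease development 60 min, then emission ratio 460/538 nm read with excitation at 390 nm.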

In the next test the target is CDK4/CyclinD1 (h) (Homo sapiens, UniProt P11802). In words: CDK4/CyclinD1 human kinase inhibition, SPA with GST-pRb substrate. The test is classed as biochemical. To be noted: read-out: CDK4 pIC50 (converted). The method in brief: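 Human CDK4/CyclinD1 (2.5 μg/ml) was incubated with 40 μg/ml GST-pRb and 2 nM [γ-33P]ATP in 50 mM Hepes pH 7.5, 8 mM NaF, 20 mM MgCl2, 1 mM DTT for 60 min at room temperature. EDTA stop with glutathione SPA beads; phosphorylation read by scintillation counting.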
Sequence of CDK4/CyclinD1 (h) (P11802 whole entry): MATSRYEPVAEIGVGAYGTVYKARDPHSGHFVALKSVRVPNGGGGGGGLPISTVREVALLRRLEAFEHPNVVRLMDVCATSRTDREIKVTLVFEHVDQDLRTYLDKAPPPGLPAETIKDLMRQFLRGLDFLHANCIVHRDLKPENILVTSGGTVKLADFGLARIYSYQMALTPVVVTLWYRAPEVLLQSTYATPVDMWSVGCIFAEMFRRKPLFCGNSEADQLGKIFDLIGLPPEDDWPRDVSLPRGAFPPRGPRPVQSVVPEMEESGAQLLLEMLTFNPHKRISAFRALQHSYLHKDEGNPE
Sequence of CDK4/CyclinD1 (h) (P24385 whole entry partner): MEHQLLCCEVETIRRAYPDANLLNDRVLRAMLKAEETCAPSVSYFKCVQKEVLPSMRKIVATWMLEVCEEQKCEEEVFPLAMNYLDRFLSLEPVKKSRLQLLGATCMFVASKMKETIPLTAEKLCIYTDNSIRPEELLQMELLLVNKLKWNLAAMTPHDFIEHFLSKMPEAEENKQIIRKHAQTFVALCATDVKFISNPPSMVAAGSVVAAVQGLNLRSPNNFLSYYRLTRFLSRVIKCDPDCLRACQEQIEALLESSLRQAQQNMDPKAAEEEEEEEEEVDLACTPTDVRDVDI

The next test concerns the target PLK2 (h) (Homo sapiens, UniProt Q9NYY3). Description: PLK2 human kinase inhibition, SPA. Conditions: read-out: PLK2 pIC50 (converted). The test is classed as biochemical. The method in brief:
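SPA read on Leadseeker: PLK2 (30 μg/ml) with 2 μM biotinylated peptide, 0.1 μM ATP plus 2 nM [γ-33P]ATP in 50 mM Hepes pH 8.0, 2 mM MnCl2, 1 mM DTT. Reaction ran 20 min at room temperature, then EDTA stop and streptavidin PVT beads.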

Another test addresses PLK3 (h) (Homo sapiens, UniProt Q9H4B4). In words: PLK3 human kinase inhibition, SPA. The test is classed as biochemical. Conditions: read-out: PLK3 pIC50 (converted). The method in brief: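 SPA: PLK3 (h) at 30 μg/ml with 2 μM biotinylated peptide, 0.1 μM ATP plus 2 nM [γ-33P]ATP in 50 mM Hepes pH 8.0, 2 mM MnCl2 and 1 mM DTT. Incubated 20 min at room temperature, then stopped with EDTA and streptavidin PVT beads. Scintillation imaged on Leadseeker.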

The test system of the next test is HCT-116. In words: Cellular proliferation assay (Alamar blue), HCT-116. The test is classed as cell-based. To be noted: Homo sapiens, 10% FCS, 72 hours with compound, Alamar blue 4 h. The method in brief:
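Cells were seeded in medium with 10% FCS at 37° C, 5% CO2, left 24 h without compound, then exposed to compounds for 72 h. Viability was read with Alamar blue (resazurin 9 μg/ml, K-ferrocyanide and K-ferricyanide 90 μM each), 6 h for U87-MG, 4 h for HCT-116, 24 h for A2780 and MDA-MB-231.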
(In general: Alamar Blue is a resazurin reagent that responds to reducing activity.)

Another test concerns H1299. Description: Cellular proliferation assay (Alamar blue), H1299. In kind it is cell-based. Conditions: Homo sapiens, NCI-H1299; 10% FCS; 72 hours with compound; Alamar blue 4 h. The method, boiled down: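 This proliferation assay on NCI-H1299 cells used an initial 24-hour compound-free incubation after seeding, followed by 72 hours of compound treatment with 10% FCS serum at 37° C. and 5% (v/v) CO2. Viable cells were quantified by a 4 h Alamar blue incubation and fluorescent plate reading at 544 nm/590 nm, and effects were expressed relative to control cells.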

Sequence of PLK2 (h) (Q9NYY3 whole entry): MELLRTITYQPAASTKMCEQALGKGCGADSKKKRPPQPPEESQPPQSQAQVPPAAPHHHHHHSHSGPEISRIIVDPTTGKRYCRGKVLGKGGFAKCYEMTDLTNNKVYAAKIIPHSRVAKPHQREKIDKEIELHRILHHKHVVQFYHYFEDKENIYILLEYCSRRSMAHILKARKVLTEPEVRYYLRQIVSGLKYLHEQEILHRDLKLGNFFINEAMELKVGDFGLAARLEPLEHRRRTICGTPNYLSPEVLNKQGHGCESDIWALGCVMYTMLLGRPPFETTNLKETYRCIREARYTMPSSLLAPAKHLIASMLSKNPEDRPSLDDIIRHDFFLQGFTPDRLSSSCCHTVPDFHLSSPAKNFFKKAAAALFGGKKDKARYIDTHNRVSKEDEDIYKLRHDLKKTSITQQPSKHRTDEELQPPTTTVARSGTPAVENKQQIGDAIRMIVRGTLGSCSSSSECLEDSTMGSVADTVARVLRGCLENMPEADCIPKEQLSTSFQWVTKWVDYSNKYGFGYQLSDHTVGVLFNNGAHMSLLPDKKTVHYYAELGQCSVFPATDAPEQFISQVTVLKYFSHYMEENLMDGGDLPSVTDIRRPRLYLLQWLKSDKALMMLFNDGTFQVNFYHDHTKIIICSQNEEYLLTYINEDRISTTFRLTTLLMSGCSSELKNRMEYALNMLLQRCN
Sequence of PLK3 (h) (Q9H4B4 whole entry): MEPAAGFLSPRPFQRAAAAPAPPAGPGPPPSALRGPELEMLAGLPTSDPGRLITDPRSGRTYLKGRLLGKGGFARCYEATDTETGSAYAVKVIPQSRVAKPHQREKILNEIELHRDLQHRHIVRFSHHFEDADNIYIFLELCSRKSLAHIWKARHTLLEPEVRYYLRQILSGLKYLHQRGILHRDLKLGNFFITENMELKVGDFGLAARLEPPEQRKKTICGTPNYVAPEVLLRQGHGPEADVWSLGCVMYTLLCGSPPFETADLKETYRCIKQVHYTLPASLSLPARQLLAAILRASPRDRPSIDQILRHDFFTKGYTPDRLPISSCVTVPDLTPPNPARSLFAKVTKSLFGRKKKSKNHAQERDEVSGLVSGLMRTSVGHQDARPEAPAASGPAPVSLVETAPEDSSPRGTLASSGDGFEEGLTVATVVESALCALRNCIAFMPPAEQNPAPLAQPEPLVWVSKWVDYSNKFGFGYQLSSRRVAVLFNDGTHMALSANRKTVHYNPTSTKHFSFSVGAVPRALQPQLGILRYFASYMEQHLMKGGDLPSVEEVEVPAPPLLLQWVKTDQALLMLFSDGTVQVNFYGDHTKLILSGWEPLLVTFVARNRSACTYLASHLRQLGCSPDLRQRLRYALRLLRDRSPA
Sequence of GSK3β (h) (P49841 whole entry): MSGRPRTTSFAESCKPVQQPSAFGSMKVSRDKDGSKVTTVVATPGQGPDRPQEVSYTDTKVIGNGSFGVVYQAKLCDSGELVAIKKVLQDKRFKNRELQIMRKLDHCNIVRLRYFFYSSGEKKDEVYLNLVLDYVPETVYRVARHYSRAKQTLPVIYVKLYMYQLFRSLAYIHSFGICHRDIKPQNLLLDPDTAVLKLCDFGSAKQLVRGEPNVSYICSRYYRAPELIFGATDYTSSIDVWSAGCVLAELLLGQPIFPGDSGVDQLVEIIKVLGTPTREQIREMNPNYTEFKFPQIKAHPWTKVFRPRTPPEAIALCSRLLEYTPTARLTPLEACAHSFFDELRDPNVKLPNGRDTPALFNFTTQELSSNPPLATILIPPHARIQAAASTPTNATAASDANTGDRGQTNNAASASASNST
Sequence of CDK1/CyclinB (h) (P06493 whole entry): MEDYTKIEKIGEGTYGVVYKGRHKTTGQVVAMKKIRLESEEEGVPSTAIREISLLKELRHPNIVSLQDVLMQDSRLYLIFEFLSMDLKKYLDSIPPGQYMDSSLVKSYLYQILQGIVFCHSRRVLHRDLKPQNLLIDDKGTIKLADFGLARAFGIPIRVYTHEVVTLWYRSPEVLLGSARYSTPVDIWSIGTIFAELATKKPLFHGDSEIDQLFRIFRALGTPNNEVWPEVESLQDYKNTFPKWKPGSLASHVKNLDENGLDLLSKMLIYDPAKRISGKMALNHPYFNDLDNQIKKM
Sequence of CDK1/CyclinB (h) (P14635 whole entry partner): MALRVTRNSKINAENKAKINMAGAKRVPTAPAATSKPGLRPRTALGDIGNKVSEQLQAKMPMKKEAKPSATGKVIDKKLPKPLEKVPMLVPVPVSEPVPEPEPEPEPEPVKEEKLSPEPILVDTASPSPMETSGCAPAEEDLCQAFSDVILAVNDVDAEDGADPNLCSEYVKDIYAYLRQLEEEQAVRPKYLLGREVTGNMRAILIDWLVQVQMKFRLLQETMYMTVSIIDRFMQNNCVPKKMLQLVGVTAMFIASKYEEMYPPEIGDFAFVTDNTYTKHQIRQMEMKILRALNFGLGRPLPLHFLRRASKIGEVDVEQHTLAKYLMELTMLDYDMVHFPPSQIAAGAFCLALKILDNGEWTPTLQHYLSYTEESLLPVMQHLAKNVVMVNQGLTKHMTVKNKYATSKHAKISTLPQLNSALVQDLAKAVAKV

Broadly, the pIC50 is −log10 of the IC50, conventionally taken in molar units. Take `COc1ccc2cc1CN(C)CCCNC(=O)C1CCN(CC1)Cc1cc(Br)cc(c1)Nc1nccc-2n1` [Compound 76]: the IC50 at AuroraB (h) is 5.5 µM; on GSK3β (h), above 10 µM; on CDK1/CyclinB (h), above 10 µM; at CDK4/CyclinD1 (h) it was above 10 µM; on PLK2 (h), above 10 µM; at PLK3 (h), above 10 µM. Moreover, the pIC50 in the test with HCT-116 and in the test with H1299 was below 5.00 each time.
On to `O=C1NCCNc2cc(ccn2)-c2ccnc(n2)Nc2ccc(N3CCOCC3)c(c2)CN2CCCC12` (stereo not shown) [Compound 161], for which the IC50 was 6.17 µM on AuroraB (h); 0.182 µM on GSK3β (h); 5.13 µM on CDK1/CyclinB (h); above 10 µM at CDK4/CyclinD1 (h); above 10 µM at PLK2 (h); above 10 µM on PLK3 (h). For the same compound, the pIC50 was 5.33 with HCT-116 and 5.00 in the test with H1299.
`CC(C)Nc1cc2cc(c1)Nc1nccc(n1)-c1ccc(cc1)CN(C)CCNC(=O)[C@@H]1CCCN1C2` [Compound 153]: the IC50 on AuroraB (h) was above 10 µM; on GSK3β (h), 3.24 µM; on CDK1/CyclinB (h) it was 2.82 µM; at CDK4/CyclinD1 (h), above 10 µM; on PLK2 (h) it was above 10 µM; at PLK3 (h), above 10 µM. Further, the pIC50 in the test on HCT-116 was 5.26; in the test with H1299, below 5.00.
With `CN1CCNC(=O)C2CCN(CC2)Cc2cc(cc(N3CCOCC3)c2)Nc2nccc(n2)-c2ccc(cc2)C1` [Compound 68], the IC50 on AuroraB (h) is above 10 µM; at GSK3β (h), 5.89 µM; on CDK1/CyclinB (h) it was above 10 µM; on CDK4/CyclinD1 (h), above 10 µM; on PLK2 (h) it was above 10 µM; on PLK3 (h), above 10 µM. The pIC50 with HCT-116 is 5.09; in the test on H1299, below 5.00.
In the case of `COc1ccc2cc1CN(C)CCCNC(=O)C1CCN(CC1)Cc1cccc(c1)Nc1nccc-2n1` [Compound 81], the IC50 at AuroraB (h), at GSK3β (h), on CDK1/CyclinB (h), at CDK4/CyclinD1 (h), on PLK2 (h) and at PLK3 (h) was above 10 µM throughout. In addition, the pIC50 with HCT-116 and with H1299 was below 5.00 each time.
For the compound `O=C1NCCCOc2ccc(cc2)-c2ccnc(n2)Nc2ccc(N3CCOCC3)c(c2)CN2CCC[C@@H]12` [Compound 7], the IC50 on AuroraB (h) is 6.31 µM; at GSK3β (h), 0.372 µM; at CDK1/CyclinB (h), 3.47 µM; at CDK4/CyclinD1 (h) it was 6.46 µM; at PLK2 (h) it was above 10 µM; at PLK3 (h) it was above 10 µM. The pIC50 in the test with HCT-116 is 5.22; in the test on H1299 it was below 5.00.
For the compound `COc1ccc2cc1CN(C)CCCNC(=O)[C@@H]1CCCN1Cc1cc(cc(N3CCOCC3)c1)Nc1nccc-2n1` [Compound 179], the IC50 at AuroraB (h), on GSK3β (h), at CDK1/CyclinB (h), at CDK4/CyclinD1 (h), on PLK2 (h) and on PLK3 (h) was above 10 µM throughout. Moreover, the pIC50 in the test with HCT-116 and with H1299 was below 5.00 in each case.
Consider `CN1CCCNC(=O)C2CCN(CC2)Cc2cccc(c2)Nc2nccc(n2)-c2ccc(cc2)C1` [Compound 78], for which the IC50 at AuroraB (h), on GSK3β (h), at CDK1/CyclinB (h), at CDK4/CyclinD1 (h), on PLK2 (h) and at PLK3 (h) was above 10 µM each time. For the same compound, the pIC50 in the test on HCT-116 and in the test on H1299 was below 5.00 in each case.
As to `COCCNC(=O)c1ccc2cc1CN1CCC[C@H]1C(=O)NCc1cccc(c1)-c1ccnc(n1)N2` [Compound 40], the IC50 was above 10 µM at AuroraB (h); 0.162 µM on GSK3β (h); 3.09 µM at CDK1/CyclinB (h); 1.62 µM at CDK4/CyclinD1 (h); above 10 µM at PLK2 (h); above 10 µM at PLK3 (h). Also, the pIC50 is 5.66 with HCT-116 and below 5.00 with H1299.
Regarding `COc1ccc2cc1CN(C)CCCNC(=O)CN1CCN(CC1)Cc1cc(Br)cc(c1)Nc1nccc-2n1` [Compound 144], the IC50 is 7.94 µM at AuroraB (h); above 10 µM on GSK3β (h); above 10 µM on CDK1/CyclinB (h); above 10 µM on CDK4/CyclinD1 (h); above 10 µM on PLK2 (h); above 10 µM at PLK3 (h). The negative logarithm of the IC50 (pIC50) with HCT-116 and in the test with H1299 was below 5.00 throughout.
Turning to `O=C1CN2CCN(CC2)Cc2cc(ccc2N2CCOCC2)Nc2nccc(n2)-c2cccc(c2)OCCCN1` [Compound 103], the IC50 at AuroraB (h) is above 10 µM; at GSK3β (h) it was 1.55 µM; at CDK1/CyclinB (h), above 10 µM; on CDK4/CyclinD1 (h) it was above 10 µM; on PLK2 (h), above 10 µM; at PLK3 (h), above 10 µM. For the same compound, the pIC50 with HCT-116 and in the test on H1299 was below 5.00 throughout.
For `O=C1NCc2cccc(c2)-c2ccnc(n2)Nc2cc(CNC3CCCCC3)cc(c2)CN2CCC[C@@H]12` [Compound 36], the IC50 on AuroraB (h) was 8.13 µM; on GSK3β (h) it was 0.129 µM; at CDK1/CyclinB (h) it was 0.457 µM; on CDK4/CyclinD1 (h), 1.2 µM; on PLK2 (h), above 10 µM; at PLK3 (h) it was above 10 µM. For the same compound, the results for the pIC50 in the test with HCT-116 and in the test on H1299 were 6.43 and 5.47, respectively.
On to `COc1ccc2cc1CN(C)CCNC(=O)CN1CCN(CC1)Cc1cccc(c1)Nc1nccc-2n1` [Compound 147], for which the IC50 on AuroraB (h), at GSK3β (h), on CDK1/CyclinB (h), at CDK4/CyclinD1 (h), on PLK2 (h) and on PLK3 (h) was above 10 µM in each case. Moreover, the pIC50 in the test on HCT-116 and in the test on H1299 was below 5.00 each time.
In the case of `COc1ccc2cc1CN1CCC(CC1)C(=O)N(C)CCN(C)c1ccc(cn1)-c1ccnc(n1)N2` [Compound 4], the IC50 on AuroraB (h) is above 10 µM; at GSK3β (h), 3.63 µM; at CDK1/CyclinB (h) it was above 10 µM; on CDK4/CyclinD1 (h) it was 1.91 µM; at PLK2 (h), above 10 µM; at PLK3 (h), above 10 µM. In addition, the figures for the pIC50 in the test with HCT-116 and with H1299 were 5.28 and below 5.00, respectively.
For the compound `C[C@@H]1NCc2cc(ccc2N2CCOCC2)Nc2nccc(n2)-c2cccc(c2)OCCCNC1=O` [Compound 88], the IC50 on AuroraB (h) is 6.46 µM; on GSK3β (h) it was 0.195 µM; at CDK1/CyclinB (h), 4.79 µM; on CDK4/CyclinD1 (h), 1.41 µM; on PLK2 (h) it was above 10 µM; at PLK3 (h), above 10 µM. Besides, the pIC50 was 5.79 with HCT-116 and 5.09 in the test with H1299.
On to `O=C1NCCCc2cc(ccn2)-c2ccnc(n2)Nc2cccc(c2)CN[C@H]1CO` [Compound 19], for which the IC50 is above 10 µM at AuroraB (h); 0.0372 µM on GSK3β (h); 0.0562 µM at CDK1/CyclinB (h); 1.26 µM at CDK4/CyclinD1 (h); above 10 µM on PLK2 (h); above 10 µM on PLK3 (h). The pIC50 in the test with HCT-116 was 6.14.
`C[C@H]1NCc2cc(ccc2N2CCOCC2)Nc2nccc(n2)-c2cccc(c2)OCCCNC1=O` [Compound 87]: the IC50 on AuroraB (h) is above 10 µM; at GSK3β (h), 0.214 µM; on CDK1/CyclinB (h), 7.08 µM; on CDK4/CyclinD1 (h), 1.26 µM; on PLK2 (h), above 10 µM; on PLK3 (h), above 10 µM. Moreover, the pIC50 is 5.42 with HCT-116 and below 5.00 in the test on H1299.
As for `O=C1CN2CCN(CC2)Cc2cccc(c2)Nc2nccc(n2)-c2ccnc(c2)CCCN1` [Compound 21], the IC50 at AuroraB (h) is above 10 µM; on GSK3β (h) it was 0.0166 µM; at CDK1/CyclinB (h), 0.105 µM; on CDK4/CyclinD1 (h), 1.29 µM; at PLK2 (h), above 10 µM; on PLK3 (h), above 10 µM. The pIC50 with HCT-116 is 5.64.
